As usually defined, the IC50 is the concentration needed to halve the response being measured. The term inhibition denotes how much of the control response was suppressed. Low values mean a response near the control, high ones a response far below the control.

The first assay concerns the target T1, MRE11 (Homo sapiens, UniProt P49959).
T1 sequence (P49959 1-708): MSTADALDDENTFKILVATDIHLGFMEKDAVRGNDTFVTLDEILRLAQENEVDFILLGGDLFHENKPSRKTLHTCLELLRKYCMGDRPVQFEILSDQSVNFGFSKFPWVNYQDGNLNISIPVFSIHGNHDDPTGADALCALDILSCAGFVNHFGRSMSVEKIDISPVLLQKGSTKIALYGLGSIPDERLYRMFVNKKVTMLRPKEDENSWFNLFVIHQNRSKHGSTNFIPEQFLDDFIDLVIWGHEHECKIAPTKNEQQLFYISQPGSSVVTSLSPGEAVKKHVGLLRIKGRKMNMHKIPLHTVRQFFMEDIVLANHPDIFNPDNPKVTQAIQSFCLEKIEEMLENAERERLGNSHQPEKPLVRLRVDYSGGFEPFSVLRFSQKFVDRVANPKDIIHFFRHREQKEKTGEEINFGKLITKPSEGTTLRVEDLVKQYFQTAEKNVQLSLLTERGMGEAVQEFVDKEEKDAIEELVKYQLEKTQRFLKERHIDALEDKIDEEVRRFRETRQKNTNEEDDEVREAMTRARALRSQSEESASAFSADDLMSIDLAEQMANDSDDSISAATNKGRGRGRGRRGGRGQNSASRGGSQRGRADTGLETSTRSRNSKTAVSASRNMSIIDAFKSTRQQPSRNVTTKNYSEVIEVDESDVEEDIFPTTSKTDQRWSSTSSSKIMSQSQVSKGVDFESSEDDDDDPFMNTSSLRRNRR
The assay is described as follows: HTS nuclease assay (cleavage of CY5/BBQ-quenched 5' overhang DNA substrate). Type of assay: biochemical. As to conditions: in vitro HTS nuclease assay; 18 nM MRE11, 40 nM DNA substrate; analysis at t=4 h. The protocol: DNA Substrate Preparation
The DNA substrate is prepared by mixing the oligonucleotides listed below in a 1:1 ratio to reach a final concentration of 6 μM in a buffer containing 50 mM Tris pH 7.5, 100 mM NaCl and 8 mM MgCl2.
This substrate is a 5′ overhang, which is a preferred substrate of MRE11. […] The fluorescence increases upon substrate cleavage by MRE11, when separation of the two labels occur.
The conditions of the assay are as follows:
Total reaction volume: 5 μL
DNA substrate concentration in the reaction: 40 nM
Inhibitor concentration range tested: 7 nM-50 μM
Each plate contains a series of high and low signal control wells, where no compound is added:
High signal: MRE11+DNA substrate
Low signal: DNA substrate only
These are used during data evaluation.
Two extra assay controls:
1) To check whether unwinding of DNA by the compounds alone occurs.
The DNA substrate [CY5+BBQ(650)] is mixed with the compounds with no protein present.
The CY5 single stranded oligo is mixed with the compounds with no protein present.
The layout of the plates is created by the in-house software (CZ-Openscreen Prague) and this information is transferred to the robotic HTS station.
The reaction is started by the addition of DNA and the reaction time is counted from that moment, including a 15 min delay. Ten timepoints are measured:
The assay data analysis was performed at t=4 h. This corresponds to the time when the reaction is close to its maximum.
The data analysis was performed using the in-house software to obtain IC50 for each compound.
`N#C/C(=C\c1ccc(O)c(O)c1)C(=O)Nc1nc(-c2ccc(C(F)(F)F)cn2)cs1` [Preparative Example 179, (E)-2-cyano-3-(3,4-dihydroxyphenyl)-N-(4-(5-(trifluoromethyl)pyridin-2-yl)thiazol-2-yl)acrylamide]: the IC50 was < 2 µM.

For `N#C/C(=C\c1ccc(O)c([N+](=O)[O-])c1)C(=O)Nc1nc(-c2ccccc2)cs1` [Preparative Example 208, (E)-2-cyano-3-(4-hydroxy-3-nitrophenyl)-N-(4-phenylthiazol-2-yl)acrylamide], the IC50 fell in the range of 10 to 90 µM.

Turning to `Cc1ccc(-c2csc(NC(=O)/C(C#N)=C/c3cc(Cl)c(O)c(Cl)c3)n2)cc1` [Preparative Example 168], the IC50 is < 2 µM.

Take `N#C/C(=C\c1ccc(O)c(O)c1)C(=O)Nc1nc(-c2ccc3ccccc3c2)cs1` [Preparative Example 163, (E)-2-cyano-3-(3,4-dihydroxyphenyl)-N-(4-(naphthalen-2-yl)thiazol-2-yl)acrylamide]: the IC50 was < 2 µM.

For the compound `N#C/C(=C\c1ccc(O)c(O)c1)C(=O)Nc1nc(-c2ncc(N3CCOCC3)cc2F)cs1` [Preparative Example 270, (E)-2-cyano-3-(3,4-dihydroxyphenyl)-N-(4-(3-fluoro-5-morpholinopyridin-2-yl)thiazol-2-yl)acrylamide], the IC50 was < 2 µM.

Turning to `N#C/C(=C\c1cc(Br)c(O)c(Br)c1)C(=O)Nc1nc(Cc2ccccc2)cs1` [Preparative Example 276, (E)-N-(4-benzylthiazol-2-yl)-2-cyano-3-(3,5-dibromo-4-hydroxyphenyl)acrylamide], the concentration for half-maximal inhibition (IC50) lay within 2 to 10 µM.

Take `N#C/C(=C\c1ccc(O)c(O)c1)C(=O)Nc1nc(-c2ccccn2)c(-c2cnccn2)s1` [Preparative Example 263, (E)-2-cyano-3-(3,4-dihydroxyphenyl)-N-(5-(pyrazin-2-yl)-4-(pyridin-2-yl)thiazol-2-yl)acrylamide]: the IC50 was < 2 µM.

The compound `N#C/C(=C\c1ccc(O)c(O)c1)C(=O)Nc1nc(-c2cccc(N3CCOCC3)n2)cs1` [Preparative Example 264, (E)-2-cyano-3-(3,4-dihydroxyphenyl)-N-(4-(6-morpholinopyridin-2-yl)thiazol-2-yl)acrylamide] registered a half-maximal inhibitory concentration (IC50) of 2 to 10 µM.

With `N#C/C(=C\c1ccc(C(=O)O)c(O)c1)C(=O)Nc1nc(-c2ccccc2)cs1` [Preparative Example 259, (E)-4-(2-cyano-3-oxo-3-((4-phenylthiazol-2-yl)amino)prop-1-en-1-yl)-2-hydroxybenzoic acid], the IC50 was 2 to 10 µM.

Take `N#C/C(=C\c1cc(O)c(O)c(C#N)c1)C(=O)Nc1nc(-c2ccccc2)cs1` [Preparative Example 269, (E)-2-cyano-3-(3-cyano-4,5-dihydroxyphenyl)-N-(4-phenylthiazol-2-yl)acrylamide]: the IC50 is < 2 µM.

`Cc1cc(/C=C(\C#N)C(=O)Nc2nc(-c3ncccc3F)cs2)cc(C)c1O` [Preparative Example 250, (E)-2-cyano-N-(4-(3-fluoropyridin-2-yl)thiazol-2-yl)-3-(4-hydroxy-3,5-dimethylphenyl)acrylamide] gave an IC50 of 10 to 90 µM.

For the compound `N#C/C(=C\c1ccc(O)c(C(=O)O)c1)C(=O)Nc1nc(-c2ccccc2)cs1` [Preparative Example 254, (E)-5-(2-cyano-3-oxo-3-((4-phenylthiazol-2-yl)amino)prop-1-en-1-yl)-2-hydroxybenzoic acid], the IC50 is 10 to 90 µM.

Take `COC(=O)c1ccc(/C=C(\C#N)C(=O)Nc2nc(-c3ccccc3)cs2)cc1O` [Preparative Example 258, Methyl (E)-4-(2-cyano-3-oxo-3-((4-phenylthiazol-2-yl)amino)prop-1-en-1-yl)-2-hydroxybenzoate]: the half-inhibitory concentration (IC50) was in the range of 2 to 10 µM.

As to `N#C/C(=C\c1cc(O)c(O)c(Br)c1)C(=O)Nc1nc(-c2ccccc2)cs1` [Preparative Example 266, (E)-3-(3-bromo-4,5-dihydroxyphenyl)-2-cyano-N-(4-phenylthiazol-2-yl)acrylamide], the IC50 is < 2 µM.

As to `CC(C)(C)c1ccc(-c2csc(NC(=O)/C(C#N)=C/c3cc(Cl)c(O)c(Cl)c3)n2)cc1` [Preparative Example 224, (E)-N-(4-(4-(tert-butyl)phenyl)thiazol-2-yl)-2-cyano-3-(3,5-dichloro-4-hydroxyphenyl)acrylamide], the concentration for half-maximal inhibition (IC50) lay within 2 to 10 µM.

The compound `N#C/C(=C\c1ccc(O)c(CO)c1)C(=O)Nc1nc(-c2ccccc2)cs1` [Preparative Example 260, (E)-2-cyano-3-(4-hydroxy-3-(hydroxymethyl)phenyl)-N-(4-phenylthiazol-2-yl)acrylamide] returned an IC50 of 2 to 10 µM.

With `N#C/C(=C\c1ccc(O)cc1Br)C(=O)Nc1nc(-c2ccccc2)cs1` [Preparative Example 256, (E)-3-(2-bromo-4-hydroxyphenyl)-2-cyano-N-(4-phenylthiazol-2-yl)acrylamide], the half-inhibitory concentration (IC50) lay in the range of 10 to 90 µM.

With `N#C/C(=C\c1cc(O)c(O)c(F)c1)C(=O)Nc1nc(-c2ccccc2)cs1` [Preparative Example 267, (E)-2-cyano-3-(3-fluoro-4,5-dihydroxyphenyl)-N-(4-phenylthiazol-2-yl)acrylamide], the 50% inhibitory concentration (IC50) is < 2 µM.

For a further assay, the system named is DR-GFP U2OS cells. Put plainly: HR assay (GFP fluorescence after I-SceI transfection, flow cytometry). Type of assay: cell-based. The note with it: Homo sapiens, inhibitor at 25 μM, 72 hours after transfection. The protocol: DR-GFP U2OS cells (Methods in Molecular Biology 2012, 920, 379.) were transfected with 2.5 μg of I-SceI-expressing pCAGGS vector and treated with the inhibitors at 25 μM concentration. 72 hours after the transfection, the cells were trypsinized and resuspended in 3% BSA in PBS. GFP fluorescence detection was carried out using a BD FACSVerse flow cytometer and data analyzed with FlowJo software.
A general note: A flow cytometer gives signals particle by particle.
With `N#C/C(=C\c1ccc(O)c(O)c1)C(=O)Nc1nc(-c2ccc(C(F)(F)F)cn2)cs1` [Preparative Example 179, (E)-2-cyano-3-(3,4-dihydroxyphenyl)-N-(4-(5-(trifluoromethyl)pyridin-2-yl)thiazol-2-yl)acrylamide], the inhibition at 25 µM was > 75%.

Compound `N#C/C(=C\c1ccc(O)c([N+](=O)[O-])c1)C(=O)Nc1nc(-c2ccccc2)cs1` [Preparative Example 208, (E)-2-cyano-3-(4-hydroxy-3-nitrophenyl)-N-(4-phenylthiazol-2-yl)acrylamide] yielded an inhibition at 25 µM of 50 to 75%.

With `Cc1ccc(-c2csc(NC(=O)/C(C#N)=C/c3cc(Cl)c(O)c(Cl)c3)n2)cc1` [Preparative Example 168], the inhibition at 25 µM was > 75%.

`N#C/C(=C\c1ccc(O)c(O)c1)C(=O)Nc1nc(-c2ccc3ccccc3c2)cs1` [Preparative Example 163, (E)-2-cyano-3-(3,4-dihydroxyphenyl)-N-(4-(naphthalen-2-yl)thiazol-2-yl)acrylamide]: the inhibition at 25 µM was > 75%.

As to `CC(C)c1cc(/C=C(\C#N)C(=O)Nc2nc(-c3ccccc3)cs2)cc(C(C)C)c1O` [Preparative Example 237, (E)-2-cyano-3-(4-hydroxy-3,5-diisopropylphenyl)-N-(4-phenylthiazol-2-yl)acrylamide], the inhibition at 25 µM is > 75%.

Take `CC(C)(C)c1cc(/C=C(\C#N)C(=O)Nc2nc(-c3ccccc3)cs2)cc(C(C)(C)C)n1` [Preparative Example 240, (E)-2-cyano-3-(2,6-di-tert-butylpyridin-4-yl)-N-(4-phenylthiazol-2-yl)acrylamide]: the inhibition at 25 µM was > 75%.

As for `Cc1cc(/C=C(\C#N)C(=O)Nc2nc(-c3ccccc3)cs2)ccc1O` [Preparative Example 217, (E)-2-cyano-3-(4-hydroxy-3-methylphenyl)-N-(4-phenylthiazol-2-yl)acrylamide], the inhibition at 25 µM lay within 50 to 75%.

Regarding `Cc1cc(/C=C(\C#N)C(=O)Nc2nc(-c3ccccc3)cs2)cc(C(C)(C)C)c1O` [Preparative Example 234, (E)-3-(3-(tert-butyl)-4-hydroxy-5-methylphenyl)-2-cyano-N-(4-phenylthiazol-2-yl)acrylamide], the inhibition at 25 µM is > 75%.

Take `CC(C)(C)c1cc(/C=C(\C#N)C(=O)Nc2nc(-c3ccc(OC(F)(F)F)cc3)cs2)cc(C(C)(C)C)c1O` [Preparative Example 221]: the inhibition at 25 µM is < 50%.

`N#C/C(=C\c1ccc(O)cc1O)C(=O)Nc1nc(-c2ccccc2)cs1` [Preparative Example 218, (E)-2-cyano-3-(2,4-dihydroxyphenyl)-N-(4-phenylthiazol-2-yl)acrylamide] registered an inhibition at 25 µM of 50 to 75%.

Regarding `CC(C)(C)c1cc(/C=C(\C#N)C(=O)Nc2nc(-c3ccccc3)cs2)ccc1O` [Preparative Example 235, (E)-3-(3-(tert-butyl)-4-hydroxyphenyl)-2-cyano-N-(4-phenylthiazol-2-yl)acrylamide], the inhibition at 25 µM was > 75%.

For `Cc1cc(/C=C(\C#N)C(=O)Nc2nc(-c3ccc(OC(F)(F)F)cc3)cs2)cc(C)c1O` [Preparative Example 177, (E)-2-cyano-3-(3,5-dimethyl-4-hydroxyphenyl)-N-(4-(4-(trifluoromethoxy)phenyl)thiazol-2-yl)acrylamide], the inhibition at 25 µM is > 75%.

The values are drawn from patent US11584742B2 (MASARYKOVA UNIVERZITA, priority 2018, dated 2023).
